Measurements published in PubChem BioAssay (NCI).
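These data come from cells grown in 96-well plates and exposed to compound for 48 hours at five concentrations. TGI is the concentration that stops growth completely.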

Key:
Assay in all cases: NCI-60 cell line screen, 48 h
MDA-N = test system: MDA-N
M14 melanoma = test system: M14 melanoma
BT-549 breast = test system: BT-549 breast
SK-OV-3 ovarian = test system: SK-OV-3 ovarian
CAKI-1 renal = test system: CAKI-1 renal
MDA-MB-231 breast = test system: MDA-MB-231 breast
HOP-62 NSCLC = test system: HOP-62 NSCLC
786-0 renal = test system: 786-0 renal
NCI/ADR-RES ovarian = test system: NCI/ADR-RES ovarian
A549 NSCLC = test system: A549 NSCLC
OVCAR-5 ovarian = test system: OVCAR-5 ovarian
SK-MEL-2 melanoma = test system: SK-MEL-2 melanoma
HCC-2998 colon = test system: HCC-2998 colon
HCT-15 colon = test system: HCT-15 colon
RXF 393 renal = test system: RXF 393 renal
SR leukemia = test system: SR leukemia
NCI-H522 lung = test system: NCI-H522 lung
HCT-116 colon = test system: HCT-116 colon
NCI-H23 lung = test system: NCI-H23 lung

Compound	TGI (MDA-N)	TGI (M14 melanoma)	TGI (BT-549 breast)	TGI (SK-OV-3 ovarian)	TGI (CAKI-1 renal)	TGI (MDA-MB-231 breast)	TGI (HOP-62 NSCLC)	TGI (786-0 renal)	TGI (NCI/ADR-RES ovarian)	TGI (A549 NSCLC)	TGI (OVCAR-5 ovarian)	TGI (SK-MEL-2 melanoma)	TGI (HCC-2998 colon)	TGI (HCT-15 colon)	TGI (RXF 393 renal)	TGI (SR leukemia)	TGI (NCI-H522 lung)	TGI (HCT-116 colon)	TGI (NCI-H23 lung)
O=C1CCCCC1C(O)(C(F)(F)F)C(F)(F)Cl (stereo unspecified)	> 10 µM	> 10 µM	> 10 µM	> 10 µM	> 10 µM	> 10 µM	> 10 µM	> 10 µM	> 10 µM	> 10 µM	> 10 µM	> 10 µM	> 10 µM	> 10 µM	> 10 µM	> 10 µM	> 10 µM	> 10 µM	> 10 µM
CCOC(=O)C1(C#N)C(C#N)(C#N)C1(C#N)C#N	> 100 µM	> 100 µM	> 100 µM	> 100 µM	> 100 µM	> 100 µM	> 100 µM	> 100 µM	> 100 µM	> 100 µM	> 100 µM	> 100 µM	> 100 µM	> 100 µM	> 100 µM	> 100 µM	> 100 µM	> 100 µM	> 100 µM
CCCCCCCc1cscc1-c1cscc1Br	> 100 µM	> 100 µM	> 100 µM	> 100 µM	91.2 µM	> 100 µM	> 100 µM	> 100 µM	> 100 µM	> 100 µM	89.4 µM	34.1 µM	75.6 µM	> 100 µM	67 µM	41.3 µM	61.9 µM	> 100 µM	> 100 µM
O=C(O)c1cccc(OCCOc2cccc(C(=O)O)c2[N+](=O)[O-])c1[N+](=O)[O-]	> 100 µM	> 100 µM	> 100 µM	> 100 µM	> 100 µM	> 100 µM	> 100 µM	> 100 µM	> 100 µM	> 100 µM	> 100 µM	> 100 µM	> 100 µM	> 100 µM	> 100 µM	> 100 µM	> 100 µM	> 100 µM	> 100 µM
S=C(Nc1ccc2c(c1)oc1ccccc12)c1cccs1	> 100 µM	> 100 µM	> 100 µM	> 100 µM	> 100 µM	> 100 µM	> 100 µM	68.9 µM	> 100 µM	> 100 µM	> 100 µM	> 100 µM	> 100 µM	> 100 µM	> 100 µM	> 100 µM	> 100 µM	> 100 µM	> 100 µM
C=C(CCC/C(C)=C/C=C/[C@H](C)CCCc1ccoc1)C[C@@H]1OC(=O)[C@H](C)[C@@H]1O	20.5 µM	19.4 µM	16.9 µM	16.8 µM	19.2 µM	19.4 µM	18.8 µM	27.4 µM	22.5 µM	15.2 µM	23.8 µM	17.8 µM	37 µM	27.4 µM	14.2 µM	37.8 µM	18.8 µM	42.4 µM	18.2 µM
CCCCCCCC(CC(=O)NC(CO)C(=O)NC(CO)CC(C)C)OC(=O)CC(CCCCCCC)OC(=O)CC(CCCCCCC)OC1OC(C)C(O)C(OC2OC(C)C(O)C(O)C2O)C1O (stereo unspecified)	20.5 µM	17.5 µM	28.8 µM	31.5 µM	33.2 µM	26.6 µM	35 µM	35 µM	33.7 µM	31.7 µM	26 µM	13.3 µM	43.1 µM	34.6 µM	31.2 µM	15.9 µM	29.5 µM	20.8 µM	30 µM
Cc1cc(C)c(S(=O)(=O)N(CCCN)OCCON(CCCN)S(=O)(=O)c2c(C)cc(C)cc2C)c(C)c1	8.22 µM	> 100 µM	66.2 µM	24.8 µM	> 71.4 µM	> 23.4 µM	11.5 µM	13.1 µM	46.6 µM	> 100 µM	4.99 µM	3.24 µM	4.24 µM	70.5 µM	> 100 µM	> 100 µM	13.6 µM	5.1 µM	7.11 µM
O=C(Oc1c(Br)cc(Br)cc1C(=O)Oc1ccccc1)C(=O)Oc1c(Br)cc(Br)cc1C(=O)Oc1ccccc1	81.3 µM	> 100 µM	52 µM	> 100 µM	57.9 µM	30.6 µM	45.1 µM	50.3 µM	> 100 µM	73.8 µM	89.9 µM	93.3 µM	> 100 µM	75.3 µM	27.2 µM	56.1 µM	32.6 µM	31.6 µM	46.6 µM
O=C(c1ccccc1)C(Nc1ccc2ccccc2c1)c1ccccc1 (stereo unspecified)	> 100 µM	> 100 µM	> 100 µM	> 100 µM	> 100 µM	> 100 µM	> 100 µM	> 100 µM	> 100 µM	> 100 µM	> 100 µM	41.8 µM	56.6 µM	> 100 µM	> 100 µM	> 71.8 µM	> 67.3 µM	> 100 µM	> 100 µM
COc1ccccc1N1C(=O)CSC1c1cc(OC)c(OC)c(OC)c1 (stereo unspecified)	44.7 µM	> 100 µM	98.3 µM	> 100 µM	> 100 µM	> 100 µM	> 100 µM	> 100 µM	> 100 µM	> 100 µM	> 100 µM	> 100 µM	> 100 µM	> 100 µM	> 100 µM	> 100 µM	> 76.8 µM	> 100 µM	> 100 µM
Nc1nc(Br)nc2ncn(C3CC(O)C(CO)O3)c12 (stereo unspecified)	> 100 µM	33.4 µM	> 100 µM	> 100 µM	> 100 µM	> 100 µM	> 100 µM	> 100 µM	> 63.1 µM	> 100 µM	> 100 µM	> 100 µM	> 100 µM	> 100 µM	> 100 µM	> 81 µM	> 100 µM	> 100 µM	> 53 µM
OCC1OC(n2cnc3c(SCc4ccccc4)ncnc32)C(O)C1O (stereo unspecified)	> 100 µM	> 100 µM	> 100 µM	> 100 µM	> 100 µM	> 100 µM	> 100 µM	> 100 µM	> 100 µM	> 100 µM	> 100 µM	> 100 µM	> 100 µM	> 100 µM	> 100 µM	> 100 µM	> 100 µM	> 100 µM	> 100 µM
O=C(NCCc1ccccc1)c1cc(/C=C/c2cc(O)ccc2O)ccc1O	9.81 µM	15.9 µM	3.7 µM	26.4 µM	13.2 µM	12.9 µM	11.9 µM	6.18 µM	> 34.2 µM	> 41.1 µM	25.3 µM	11.8 µM	21.7 µM	7.42 µM	2.93 µM	8.58 µM	4.32 µM	4.19 µM	17.7 µM
